# Results as given in patent publication US20170296570A1, “High Drug Load Tablets Comprising Sofosbuvir” (Sandoz AG, priority 2014, published 2017).
# How the values were obtained:
# [1] = Determination of the moisture stability of polymorphic forms of sofosbuvir and amorphous sofosbuvir (humidity chamber, XRPD before and after); format: physicochemical; details: for XRPD analysis, sample after storage at 40° C./75% RH for 18 h / Visual aspect, sample after storage at 40° C./75% RH for 18 h: after 18 h at 40° C./75% RH in humidity chamber; for Visual aspect, sample after storage at 40° C./75% RH for 18 h: footnote: gel/gum = sample deliquesced; for Visual aspect, sample before storage at 40° C./75% RH / XRPD analysis, sample before storage at 40° C./75% RH: 30 mg sample
# Method: Even more precisely, the moisture stability of the polymorphic form is defined as the amount in mg of the polymorphic form which is present after an exposure of an amount of 30 mg of the polymorphic form to a relative humidity of (75±1) % at a temperature of (40±1)° C. for an exposure time of (18±1) hours in a humidity chamber, relative to the amount of 30 mg of the polymorphic form before said exposure, as determined via X-ray powder diffraction pattern analysis at a temperature in the range of from 15 to 25° C. with Cu-Kalpha1,2 radiation having a wavelength of 0.15419 nm of the polymorphic form before the exposure and via said X-ray powder diffraction pattern analysis after the exposure.
# 30 mg of a given polymorphic form of sofosbuvir or of amorphous sofosbuvir prepared according to Reference Examples 1 to 4 were analyzed via XRPD as described in Reference Example 6. Then, these polymorphic forms of sofosbuvir or of amorphous sofosbuvir were exposed to an atmosphere having a relative humidity (RH) of 75% and a temperature of 40° C. for 18 hours in a humidity chamber and analyzed via XRPD as described in Reference Example 6.
# XRPD patterns were obtained with an X'Pert PRO diffractometer (PANalytical, Almelo, The Netherlands) equipped with a theta/theta coupled goniometer in transmission geometry, pro-grammable XYZ stage with well plate holder, Cu-Kalpha1,2 radiation source (wavelength 0.15419 nm) with a focusing mirror, a 0.5° divergence slit, a 0.02° soller slit collimator and a 0.5° anti-scattering slit on the incident beam side, a 2 mm anti-scattering slit, a 0.02° soller slit collimator, a Ni-filter and a solid state PIXcel detector on the diffracted beam side. The diffractogram was recorded at room temperature at a tube voltage of 40 kV, tube current of 40 mA, applying a stepsize of 0.013° 2-theta with 40 sec per step in the angular range of 2° to 40° 2-theta. A typical precision of the 2-theta values is in the range of ±0.2° 2-theta. Thus, a diffraction peak that appears for example at 9.4° 2-theta can appear between 9.2 and 9.6° 2-theta on most X-ray diffractometers under standard conditions.
# [2] = 40° C., relative humidity 75%; cited from earlier work
Structure (SMILES),"XRPD analysis, sample after storage at 40° C./75% RH for 18 h [1]","Visual aspect, sample after storage at 40° C./75% RH for 18 h [1]","Visual aspect, sample before storage at 40° C./75% RH [1]","XRPD analysis, sample before storage at 40° C./75% RH [1]",behaviour under stress conditions (deliquescence) [2]
CC(C)OC(=O)[C@H](C)N[P@](=O)(OC[C@H]1O[C@@H](n2ccc(=O)[nH]c2=O)[C@](C)(F)[C@@H]1O)Oc1ccccc1 [Form 7],"crystalline, Form 7",white powder,white powder,"crystalline, Form 7",
CC(C)OC(=O)[C@H](C)N[P@](=O)(OC[C@H]1O[C@@H](n2ccc(=O)[nH]c2=O)[C@](C)(F)[C@@H]1O)Oc1ccccc1 [Form 1],amorphous,gel/gum*^),white powder,"crystalline, Form 1",
CC(C)OC(=O)[C@H](C)N[P@](=O)(OC[C@H]1O[C@@H](n2ccc(=O)[nH]c2=O)[C@](C)(F)[C@@H]1O)Oc1ccccc1 [Amorphous],amorphous,gel/gum*^),white powder,amorphous,
CC(C)OC(=O)[C@H](C)N[P@](=O)(OC[C@H]1O[C@@H](n2ccc(=O)[nH]c2=O)[C@](C)(F)[C@@H]1O)Oc1ccccc1 [Form 6],"crystalline, Form 6",white powder,white powder,"crystalline, Form 6",
"CC(C)OC(=O)[C@H](C)N[P@](=O)(OC[C@H]1O[C@@H](n2ccc(=O)[nH]c2=O)[C@](C)(F)[C@@H]1O)Oc1ccccc1 [sofosbuvir, (S)-isopropyl 2-(((S)-(((2R,3R,4R,5R)-5-(2,4-dioxo-3,4-dihydropyrimidin-1(2H)-yl)-4-fluoro-3-hydroxy-4-methyltetrahydrofuran-2-yl)methoxy)(phenoxy)phosphoryl)-amino)propanoate]",,,,,deliquesces after a few hours
